Data taken from BindingDB's records for doi:10.1016/s0960-894x(03)00461-x (Eli Lilly, 2003).

How the values were obtained:
Assay in all cases: CDK Kinase Inhibition Assay
Conditions in all cases: 25 °C
[1] = target: Cyclin-dependent kinase 2/G1/S-specific cyclin-E1 (Homo sapiens, UniProt P24941)
[2] = target: cAMP-dependent protein kinase catalytic subunit alpha (Bos taurus, UniProt P00517)
[3] = target: Calcium/calmodulin-dependent protein kinase type II subunit alpha (Rattus norvegicus, UniProt P11275)
Calcium/calmodulin-dependent protein kinase type II subunit alpha, sequence (P11275 whole entry): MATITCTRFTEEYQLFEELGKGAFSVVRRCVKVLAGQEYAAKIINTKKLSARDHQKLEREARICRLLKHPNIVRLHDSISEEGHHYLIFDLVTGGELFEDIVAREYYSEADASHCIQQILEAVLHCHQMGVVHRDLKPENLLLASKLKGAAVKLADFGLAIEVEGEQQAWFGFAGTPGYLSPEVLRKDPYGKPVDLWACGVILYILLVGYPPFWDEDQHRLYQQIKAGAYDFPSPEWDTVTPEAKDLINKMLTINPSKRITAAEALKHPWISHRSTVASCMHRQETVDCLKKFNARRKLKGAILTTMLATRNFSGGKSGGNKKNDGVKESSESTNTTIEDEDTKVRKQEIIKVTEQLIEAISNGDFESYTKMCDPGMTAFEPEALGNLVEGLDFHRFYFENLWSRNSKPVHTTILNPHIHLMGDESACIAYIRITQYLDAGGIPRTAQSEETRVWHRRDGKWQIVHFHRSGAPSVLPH

Molecule `COc1ccc2c3c4c(c5c(ccc6ccn(C)c65)c3n(CCCN3CCC(O)CC3)c2c1)C(=O)NC4=O` [3-[3-(4-hydroxypiperidin-1-yl)propyl]-6-methoxy-18-methyl-3,13,18-triazahexacyclo[14.7.0.0^{2,10}.0^{4,9}.0^{11,15}.0^{17,21}]tricosa-1(16),2(10),4(9),5,7,11(15),17(21),19,22-nonaene-12,14-dione] has an IC50 [1] of 2.1 µM.

With `CCc1ccc2c(c1)[nH]c1c3ccc4ccn(C)c4c3c3c(c21)C(=O)NC3=O` [6-ethyl-18-methyl-3,13,18-triazahexacyclo[14.7.0.0^{2,10}.0^{4,9}.0^{11,15}.0^{17,21}]tricosa-1(16),2(10),4(9),5,7,11(15),17(21),19,22-nonaene-12,14-dione] the IC50 [2] was > 20 µM and the IC50 [1] was 0.36 µM.

In the case of `COc1ccc2c3c4c(c5c(ccc6ccn(C)c65)c3n(CCN3CCCCC3)c2c1)C(=O)NC4=O` [6-methoxy-18-methyl-3-[2-(piperidin-1-yl)ethyl]-3,13,18-triazahexacyclo[14.7.0.0^{2,10}.0^{4,9}.0^{11,15}.0^{17,21}]tricosa-1(16),2(10),4(9),5,7,11(15),17(21),19,22-nonaene-12,14-dione], the IC50 [3] is reported as > 20 µM and the IC50 [2] is reported as > 20 µM.

For `COc1ccc2c3c4c(c5c(ccc6ccn(C)c65)c3n(CCCN3CCOCC3)c2c1)C(=O)NC4=O` [6-methoxy-18-methyl-3-[3-(morpholin-4-yl)propyl]-3,13,18-triazahexacyclo[14.7.0.0^{2,10}.0^{4,9}.0^{11,15}.0^{17,21}]tricosa-1(16),2(10),4(9),5,7,11(15),17(21),19,22-nonaene-12,14-dione], the IC50 [3] was > 20 µM and the IC50 [2] was > 20 µM.

`COc1ccc2c3c4c(c5c(ccc6ccn(C)c65)c3n(CCCN3CCSCC3)c2c1)C(=O)NC4=O` [6-methoxy-18-methyl-3-[3-(thiomorpholin-4-yl)propyl]-3,13,18-triazahexacyclo[14.7.0.0^{2,10}.0^{4,9}.0^{11,15}.0^{17,21}]tricosa-1(16),2(10),4(9),5,7,11(15),17(21),19,22-nonaene-12,14-dione] was tested, and the IC50 [3] was > 20 µM and the IC50 [2] was > 20 µM.

In the case of `COC(=O)C1CCN(CCc2cccc3c2[nH]c2c4ccc5ccn(C)c5c4c4c(c32)C(=O)NC4=O)CC1` [methyl 1-(2-{18-methyl-12,14-dioxo-3,13,18-triazahexacyclo[14.7.0.0^{2,10}.0^{4,9}.0^{11,15}.0^{17,21}]tricosa-1(16),2(10),4(9),5,7,11(15),17(21),19,22-nonaen-5-yl}ethyl)piperidine-4-carboxylate], the IC50 [2] is reported as > 20 µM.
